Test results from publication PMC7738508, “A therapeutic combination of two small molecule toxin inhibitors provides broad preclinical efficacy against viper snakebite” (Nature Communications, 2020).
“And” between values parts separate entries of the source, which are not always exact repeats. Identical values can stand only once.

Key:
[1] = type: in vivo, CD-1 mice; conditions: no venom; 60 µg of each drug, i.v.; listed as M
Experimental: All experimental animals (18–20 g [4–5 weeks old], male, CD-1 mice, Charles River, UK) were housed in groups of five with environmental enrichment, water and food ad libitum and their health monitored daily during acclimatization. The experimental design was based upon 3R-refined WHO-recommended protocols[28],[41], with animals randomized and observers being blinded to the experimental condition.
All experimental doses were prepared to a volume of 200 µl in PBS and incubated at 37 °C for 30 min prior to their intravenous injection via the tail vein. Animals were monitored for 6 h, and euthanized via rising concentrations of CO2 upon observation of previously defined humane end points that are predicators of lethality (e.g., seizure, pulmonary distress, paralysis, hemorrhage)[28]. Deaths, time of death, and survivors were recorded; where death/time of death actually represents the implementation of euthanasia based on defined humane end points.
For all experimental animals described above, blood samples were collected via cardiac puncture immediately post-euthanasia. Plasma was separated by centrifugation at 400 × g for 10 min and stored at −80 °C. We assessed the levels of thrombin-antithrombin complexes (TAT) and soluble thrombomodulin using mouse ELISA Kits (ab137994 and ab209880, Abcam), following the manufacturer’s protocol. […] The resulting data was plotted as the median of duplicate measurements for each animal and is presented with standard deviations (SDs).

[2] = tested on: coagulopathic activity of Daboia russelii venom (citrated bovine plasma); experiment: plasma clotting assay; type: biochemical; parameters: key to maximum clotting velocity: max of first derivative of A595 clot curve (max clotting velocity); conditions: for maximum clotting velocity: Daboia russelii venom 100 ng, independent repeats
Experimental: (§1) We used a previously developed plasma clotting assay[35] to measure venom-induced coagulation. Briefly, 100 ng of each venom was incubated at 37 °C for 30 min in the presence or absence of inhibitors (150 µM to 150 nM final concentrations). The final reaction consisted of 10 µl venom ± inhibitors in PBS, 20 µl 20 mM CaCl2, and 20 µl citrated bovine plasma (VWR). The samples were pipetted in triplicate into 384-well plates, and absorbance monitored at 595 nm for 2 h at 25 °C on an Omega FLUOstar instrument. We calculated the maximum clotting velocity of each of the curves as per clot waveform analysis, by calculating the maximum of the first derivative. The means of at least three independent experimental runs for each condition were plotted at each inhibitor concentration with SEMs.

[3] = tested on: pro- and anticoagulant fractions of D. russelii venom; experiment: nanofractionation with plasma coagulation assay; type: biochemical, Daboia russelii; conditions: nanofractionated D. russelii venom; inhibitor 0.0064 to 20 µM
Experimental: Fifty microlitres of venom solution (D. russelii; 1 mg/ml) was injected into a Shimadzu LC-2010 system with nanofractionation in parallel. Separation was performed on a Waters XBridge reversed-phase C18 column (250 × 4.6 mm^2 column with 3.5 μm pore-size) at 30 °C. The total flow rate of the mobile phase solution was 0.5 ml/min with eluent A (98% H2O, 2% acetonitrile [ACN], 0.1% formic acid [FA]) and eluent B (98% ACN, 2% H2O, 0.1% FA). Liquid chromatography gradients consisted of a linear increase of mobile phase B from 0 to 50% in 20 min, followed by a linear increase to 90% B in 4 min, then isocratic at 90% B for 5 min, after which the percentage of mobile phase B was decreased from 90 to 0% in 1 min, followed by 10 min at 0% B to re-equilibrate. The effluent was split in a 1:9 ratio of which the 10% fraction was sent to a Shimadzu SPD-M20A prominence diode array detector and the 90% fraction was directed to a nanofractionation collector which dispensed the fractions into transparent 384-well plates (F-bottom, rounded square well, polystyrene, without lid, clear, non-sterile; Greiner Bio One, Alphen aan den Rijn, The Netherlands) at a resolution of 6 s/well. The collector used was either a commercially available FractioMate^TM nanofractionator (SPARK-Holland & VU, Netherlands, Emmen & Amsterdam) controlled by FractioMator software v1.0 (Spark-Holland, The Netherlands, Emmen) or a modified Gilson 235P autosampler controlled by in-house written software Ariadne v1.8 (VU Amsterdam). The well plates with venom fractions were then dried overnight in a Christ Rotational Vacuum Concentrator (RVC 2 − 33 CD plus, Zalm en Kipp, Breukelen, The Netherlands) equipped with a cooling trap, and maintained at −80 °C during operation. The freeze-dried plates were then stored at −80 °C prior to bioassaying.
The final assay concentrations of the inhibitors tested in the assay were 20, 4, 0.8, 0.16, 0.032, and 0.0064 µM. The plates were then incubated for 30 min at room temperature, and during this time bovine plasma (Sterile Filtered, Biowest, Nuaille, France) was defrosted in a water bath and centrifuged for 4 min at 805 × g prior to use. […] The plate was then read immediately for absorbance kinetically for 100 min at 595 nm at 25 °C using a Varioskan Flash Multimode Reader (Thermo Fisher Scientific, Ermelo, The Netherlands). The obtained results were normalized by dividing the slope measured in each well by the median of all slope values across the plate, and the processed coagulation chromatograms were plotted to visualize very fast coagulation, medium increased coagulation and anticoagulation, as previously described.

[4] = tested on: procoagulant activity of viper venoms (citrated bovine plasma); experiment: plasma clotting assay, viper venoms overall; type: biochemical; conditions: range across all venoms; lower end of dimercaprol and marimastat ranges given as < 0.15; read-out: IC50, inhibition of procoagulant venom activity
Experimental: as §1

[5] = tested on: procoagulant activity of Bothrops asper venom (citrated bovine plasma); experiment: plasma clotting assay; type: biochemical; conditions: Bothrops asper venom 100 ng, independent repeats
Experimental: as §1

[6] = tested on: procoagulant activity of Echis ocellatus venom (citrated bovine plasma); experiment: plasma clotting assay; type: biochemical; conditions: Echis ocellatus venom 100 ng, independent repeats
Experimental: as §1

CNC(=O)[C@@H](NC(=O)[C@H](CC(C)C)[C@H](O)C(=O)NO)C(C)(C)C [marimastat]
thrombin-antithrombin (TAT) levels, drug-only control animals [1]: 16.1111 ng/mL and 15.7371 ng/mL and 12.5653 ng/mL | effect on clotting after complete neutralization of SVMP activity ([2]; D. russelii venom, high doses): revealed clear venom anticoagulant effects | maximum clotting velocity ([2]; inhibitor 15 µM): 0.01941 and 0.01206 and 0.01103 | maximum clotting velocity ([2]; inhibitor 150 µM): 0.005735 and 0.003235 | inhibition of anticoagulant venom fractions [3]: not neutralized | inhibition of procoagulant venom fractions [3]: effectively inhibited in a dose-dependent manner | IC50 [4]: 150 to 1920 nM | maximum clotting velocity ([5]; inhibitor 15 µM): 0.02338 and 0.02609 and 0.02203 | maximum clotting velocity ([5]; inhibitor 150 µM): 0.02696 and 0.02551 and 0.02522 | maximum clotting velocity ([6]; inhibitor 15 µM): 0.0225 and 0.02559 and 0.02899 | maximum clotting velocity ([6]; inhibitor 150 µM): 0.02088 and 0.02471 and 0.02435
